Patent EP1362589A1, “The use of R(+)-alpha-(2,3-dimethoxyphenyl)-1-(2-(4-fluorophenyl)ethyl)-4- piperidinemethanol for the treatment of sleep disorders” (Aventis Pharmaceuticals Inc., priority 1998, dated 2000)

How the values were obtained:
Format in all cases: in vivo
[1] = system: newborn Sprague Dawley rats; test: Occurrence of obstructive apneas induced by L-Tryptophan and Pargyline injection
Method: Intraperitoneal application of L-Tryptophan (10mg/kg) and Pargyline (50mg/kg) to anaesthesized newborn rats depressed the amplitude of the inspiratory discharges of the genioglossal muscle and induced obstructive apneas (OA).
(§1) Experiments were carried out on newborn Sprague Dawley rats from Iffa Credo breeding centre. The animals were anaesthetised by intraperitoneal injection of low doses of sodium pentobarbitone (7-10mg/kg), kept lying (dorsal cubitus) on a warming blanket and were spontaneously ventilating.
(§2) The EMG activity of the genioglossal muscles and the diaphragm were recorded with fine insulated wires (bipolar recordings) inserted within the muscles, filtered (100-3,000 Hz), amplified (x 5-10,000) and integrated (time constant 50 ms). The rib cage movements were recorded via a captor gently touching the lower ribs and/or the abdominal wall. The air flow changes resulting from the respiratory chest movements were recorded via a facial mask and a highly sensitive pressure recorder.

[2] = system: newborn Sprague Dawley rats; test: Depression of genioglossal EMG induced by L-Tryptophan and Pargyline
Method: as §1, §2
Ten to fifteen minutes after induction of anaesthesia, the animals received first an intraperitoneal injection of the COMPOUND, and a control recording was taken to define the mean amplitude of the integrated EMGs. Then, the animal received an intraperitoneal injection of L-Tryptophan plus Pargyline ("L-Trp+Parg") 10mg/kg and 50mg/kg, respectively, and the changes in EMG amplitudes were checked every 10 minutes and were expressed as % of control values.

[3] = system: patients diagnosed with schizophrenia; test: Oral twice-daily dosing in patients with schizophrenia, reported insomnia and somnolence (Example 4B); conditions: orally
Method: Forty percent of the subjects receiving the 20mg dose (2 out of 5) and sixty percent of the subjects receiving the 10mg dose (3 out of 5) experienced mild to moderate sedation. […] The following data were reported.

[4] = system: healthy subjects; test: Single oral dose in healthy subjects, reported sedation (Example 4A); conditions: orally
Method: Forty percent of the subjects receiving the 20mg dose (2 out of 5) and sixty percent of the subjects receiving the 10mg dose (3 out of 5) experienced mild to moderate sedation. […]

[5] = system: healthy subjects; test: Oral doses 3-72 mg in healthy subjects, reported drowsiness (Example 4D); conditions: 72mg dose (n=4); only this group among 3, 9, 18, 36 and 72mg reported drowsiness
Method: Only the group receiving the 72mg dose reported drowsiness (n=3).

[6] = system: healthy subjects; test: Oral doses in healthy subjects, reported drowsiness (Example 4C); conditions: for Drowsiness, % of subjects / Drowsiness, n subjects: group n=4
Method: The following data were reported. […] Only the group receiving the 72mg dose reported drowsiness ([…]).

Structure (SMILES): Cn1c(=O)c2[nH]cnc2n(C)c1=O [theophylline, reference compound]
- prevention of induction of OAs after L-Trp+Prg injection ([1]; 10 mg/kg): not prevented
- prevention of induction of OAs after L-Trp+Prg injection ([1]; 30 mg/kg): not prevented
- prevention of depression of the amplitude of GG inspiratory discharges by L-Trp+Prg ([2]; 10mg/kg, five newborn rats): not prevented
- prevention of depression of the amplitude of GG inspiratory discharges by L-Trp+Prg ([2]; 30mg/kg, 5 animals): not prevented

Structure (SMILES): COc1cccc([C@H](O)C2CCN(CCc3ccc(F)cc3)CC2)c1OC [COMPOUND, R-(+)-α-(2,3-Dimethoxyphenyl)-1-[2-(4-fluorophenyl)ethyl]-4-piperidinemethanol]
- Insomnia, % of subjects ([3]; 10 mg (5mg twice daily)): N=0; 0%
- Insomnia, N (number of subjects that reported the effect) ([3]; 10 mg (5mg twice daily)): N=0; 0%
- Somnolence, % of subjects ([3]; 10 mg (5mg twice daily)): 20%
- Somnolence, N (number of subjects that reported the effect) ([3]; 10 mg (5mg twice daily)): 3
- Insomnia, % of subjects ([3]; 20 mg (10mg twice daily)): 21.4%
- Insomnia, N (number of subjects that reported the effect) ([3]; 20 mg (10mg twice daily)): 3
- Somnolence, % of subjects ([3]; 20 mg (10mg twice daily)): 15.4%
- Somnolence, N (number of subjects that reported the effect) ([3]; 20 mg (10mg twice daily)): N=1;
- Insomnia, % of subjects ([3]; 40 mg (20mg twice daily)): 23.1%
- Insomnia, N (number of subjects that reported the effect) ([3]; 40 mg (20mg twice daily)): 3
- Somnolence, % of subjects ([3]; 40 mg (20mg twice daily)): 15.4%
- Somnolence, N (number of subjects that reported the effect) ([3]; 40 mg (20mg twice daily)): N=2;
- animals that died of respiratory distress ([1]; pre-treatment 0.1 mg/kg): 4 of the 10
- newborn rats in which L-Trp+Parg injection induced OAs ([1]; pre-treatment 0.1 mg/kg): 9 of 10
- newborn rats that did not present short lasting OAs at all ([1]; pre-treatment 1mg/kg): Five out of ten
- newborn rats which displayed OAs ([1]; pre-treatment 1mg/kg): 5 of 10
- newborn rats with long lasting OAs ([1]; pre-treatment 1mg/kg): one
- survival to L-Trp+Parg injection ([1]; pre-treatment 1mg/kg): all animals survived
- animals with infrequent OAs (less than 5 short lasting OAs in 60 minutes) ([1]; pre-treatment 1mg/kg, among the 5 of 10 which displayed OAs): 2
- peak frequency of occurrence of short lasting OAs ([1]; pre-treatment 1mg/kg, between 20-40 min after the injection, mean curve): 4 OAs per 10 minute period
- animals that displayed long lasting OAs ([1]; pre-treatment 3mg/kg): None of the 10
- rats with a total of less than 3 short lasting Oas ([1]; pre-treatment 3mg/kg): 3 of 10
- rats with no short lasting Oas ([1]; pre-treatment 3mg/kg): 5 of 10
- survival ([1]; pre-treatment 3mg/kg): all survived
- treated rats with frequent short lasting Oas ([1]; pre-treatment 3mg/kg): 2 of 10
- prevention of the depression of genioglossal (GG) discharge induced by L-Trp+Parg ([2]; pre-treatment 0.1 mg/kg intraperitoneal, ten animals): did not prevent
- prevention of the depression of genioglossal (GG) discharge induced by L-Trp+Parg ([2]; pre-treatment 1mg/kg intraperitoneal, ten newborn rats): efficient in preventing the GG depression
- prevention of the depression of genioglossal (GG) discharge induced by L-Trp+Parg ([2]; pre-treatment 3mg/kg intraperitoneal, ten animals): confirmed the efficiency
- subjects experienced mild to moderate sedation ([4]; single 10mg dose): 3 out of 5
- subjects experienced mild to moderate sedation ([4]; single 20mg dose): 2 out of 5
- reported drowsiness, n subjects [5]: 3
- Drowsiness, % of subjects ([6]; 9 mg orally): 50%
- Drowsiness, n subjects ([6]; 9 mg orally): 2
- Drowsiness, % of subjects ([6]; 18 mg orally): 100%
- Drowsiness, n subjects ([6]; 18 mg orally): 4
- Drowsiness, % of subjects ([6]; 36 mg orally): 100%
- Drowsiness, n subjects ([6]; 36 mg orally): 4
- drowsiness rating ([6]; 72 mg and above): moderate to severe
- Drowsiness, % of subjects ([6]; 72 mg orally): 75%
- Drowsiness, n subjects ([6]; 72 mg orally): 3
- Drowsiness, % of subjects ([6]; 108 mg orally): 100%
- Drowsiness, n subjects ([6]; 108 mg orally): 4
- Drowsiness, % of subjects ([6]; 138 mg orally): 100%
- Drowsiness, n subjects ([6]; 138 mg orally): 4
- drowsiness rating ([6]; doses below 72 mg): mild or moderate
